The term EC50 denotes the concentration needed to bring the measured effect to its halfway point. Lower therefore signals greater potency.

T1 sequence (P21453 whole entry): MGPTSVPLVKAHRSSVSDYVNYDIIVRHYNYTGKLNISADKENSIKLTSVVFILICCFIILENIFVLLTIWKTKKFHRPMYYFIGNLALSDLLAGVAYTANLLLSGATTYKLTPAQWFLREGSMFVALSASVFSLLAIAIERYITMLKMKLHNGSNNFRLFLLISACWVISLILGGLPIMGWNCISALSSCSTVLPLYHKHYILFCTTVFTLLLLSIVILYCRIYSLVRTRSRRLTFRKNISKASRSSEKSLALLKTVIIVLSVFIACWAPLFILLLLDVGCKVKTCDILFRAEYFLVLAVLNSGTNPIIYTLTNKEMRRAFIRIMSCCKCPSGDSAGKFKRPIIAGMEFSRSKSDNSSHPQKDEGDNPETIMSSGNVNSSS

The assay addresses T1, human S1P1 receptor (Homo sapiens, UniProt P21453).
T1 construct: expressed in transfected cells; host or cells: unnamed cells stably expressing the receptor; membranes used
Put plainly: GTP γ35S binding assay for S1P1 activity. It counts as biochemical. Conditions: activity potency from GTP γ35S binding; 5 μg membrane protein; test compounds 0.08 to 5,000 nM; 30 min at 25° C. The procedure: Compounds were synthesized and tested for S1P1 activity using the GTP γ^35S binding assay. These compounds may be assessed for their ability to activate or block activation of the human S1P1 receptor in cells stably expressing the […] receptor.
GTP γ^35S binding was measured in the medium containing (mM) HEPES 25, pH 7.4, MgCl2 10, NaCl 100, dithitothreitol 0.5, digitonin 0.003%, 0.2 nM GTP γ^35S, and 5 μg membrane protein in a volume of 150 μl. Test compounds were included in the concentration range from 0.08 to 5,000 nM unless indicated otherwise. Membranes were incubated with 100 μM 5′-adenylylimmidodiphosphate for 30 min, and subsequently with 10 μM GDP for 10 min on ice. Drug solutions and membrane were mixed, and then reactions were initiated by adding GTP γ^35S and continued for 30 min at 25° C. Reaction mixtures were filtered over Whatman GF/B filters under vacuum, and washed three times with 3 mL of ice-cold buffer (HEPES 25, pH7.4, MgCl2 10 and NaCl 100). Filters were dried and mixed with scintillant, and counted for ^35S activity using a β-counter. Agonist-induced GTP γ^35S binding was obtained by subtracting that in the absence of agonist. Binding data were analyzed using a non-linear regression method. In case of antagonist assay, the reaction mixture contained 10 nM S1P in the presence of test antagonist at concentrations ranging from 0.08 to 5000 nM.
Activity potency: S1P1 receptor from GTP γ^35S: nM, (EC50),
In turn, `Cc1ccc(CC(CCCCOc2ccc(CNCCCP(=O)(O)O)cc2)c2cccc(Cl)c2)cc1C` (centres unmarked) [Compound 8, {3-[(4-{[5-(3-chlorophenyl)-6-(3,4-dimethylphenyl)hexyl]oxy}benzyl)amino]propyl}phosphonic acid] came in with an EC50 of 17.1 nM. Compound `Cc1ccc(CC(CCCOc2ccc(CNCCC(=O)O)cc2)c2cc(F)cc(F)c2)cc1C` (centres unmarked) [Compound 4, 3-[(4-{[4-(3,5-difluorophenyl)-5-(3,4-dimethylphenyl)pentyl]oxy}benzyl)amino]propanoic acid] showed a concentration giving a half-maximal response (EC50) of 17.8 nM. The value for `Cc1ccc(CC(CCOc2ccc(CNCCC(=O)O)cc2)c2cccc(Cl)c2)cc1C` (centres unmarked) [Compound 6, 3-({4-[3-(3-chlorophenyl)-4-(3,4-dimethylphenyl)butoxy]benzyl}amino)propanoic acid] was 96.9 nM; that for `Cc1ccc(CC(CCCOc2ccc(CNCCCP(=O)(O)O)cc2)c2cc(F)cc(F)c2)cc1C` (centres unmarked) [Compound 9, {3-[(4-{[4-(3,5-difluorophenyl)-5-(3,4-dimethylphenyl)pentyl]oxy}benzyl)amino]propyl}phosphonic acid] was 0.01 nM; that for `Cc1ccc(CC(CCCCOc2ccc(CNCCC(=O)O)cc2)c2cccc(Cl)c2)cc1C` (centres unmarked) [Compound 3, 3-[(4-{[5-(3-chlorophenyl)-6-(3,4-dimethylphenyl)hexyl]oxy}benzyl)amino]propanoic acid] was 134 nM. The compound `Cc1ccc(CC(CCCOc2ccc(CNCCCP(=O)(O)O)cc2)c2cccc(Cl)c2)cc1C` (centres unmarked) [Compound 10, {3-[(4-{[4-(3-chlorophenyl)-5-(3,4-dimethylphenyl)pentyl]oxy}benzyl)amino]propyl}phosphonic acid] gave an EC50 of 0.23 nM. This EC50 is about 580-fold lower than that of the compound before. The compound `Cc1ccc(CC(CCCOc2ccc(CNCCC(=O)O)cc2)c2cccc(Cl)c2)cc1C` (centres unmarked) [Compound 5, 3-[(4-{[4-(3-chlorophenyl)-5-(3,4-dimethylphenyl)pentyl]oxy}benzyl)amino]propanoic acid] came in with a 50% effective concentration (EC50) of 59.5 nM. Under `Cc1ccc(CC(CCCOc2ccc(CNCCCP(=O)(O)O)cc2)c2ccsc2)cc1C` (centres unmarked) [Compound 7] stands 2.08 nM; under `Cc1ccc(CC(CCCOc2ccc(CNCCC(=O)O)cc2)c2cccc(F)c2F)cc1C` (centres unmarked) [Compound 2, 3-[(4-{[4-(2,3-difluorophenyl)-5-(3,4-dimethylphenyl)pentyl]oxy}benzyl)amino]propanoic acid], 0.85 nM; under `Cc1ccc(CC(CCCOc2ccc(CNCCC(=O)O)cc2)c2ccsc2)cc1C` (centres unmarked) [Compound 1, 3-[(4-{[5-(3,4-dimethylphenyl)-4-(3-thienyl)pentyl]oxy}benzyl)amino]propanoic acid], 14 nM. Under `Cc1ccc(CC(CCOc2ccc(CNCCCP(=O)(O)O)cc2)c2cccc(Cl)c2)cc1C` (centres unmarked) [Compound 11, [3-({4-[3-(3-chlorophenyl)-4-(3,4-dimethylphenyl)butoxy]benzyl}amino)propyl]phosphonic acid] stands 7.44 nM.

The values above are taken from patent publication US8754066B2, “Phenoxy derivatives as sphingosine 1-phosphate (S1P) receptor modulators” (Allergan, Inc., priority 2012, dated 2014).
